“Also recorded” adds a separate entry of the source.

The record followed here is patent US9000027B2, “Chk1 suppresses a caspase-2 apoptotic response to DNA damage that bypasses p53, bcl-2 and caspase-3” (Dana-Farber Cancer Institute, Inc., priority 2008, dated 2015).

One test concerns p53 mutant embryos. The test is described as follows: Live acridine orange (AO) assay of IR-induced cell death in inhibitor-treated p53 mutant embryos. The class given is in vivo, zebrafish. The text has this:
Chk1 inhibitors hold considerable promise in cancer therapy, as they are expected to synergize with genotoxic agents to kill tumor cells lacking functional p53, without affecting normal cells (Kawabe, 2004; Zhou and Bartek, 2004). […] Gö6976 has not been tested in vivo in a vertebrate model system. We therefore evaluated it as well as specific Chk2 and ATM inhibitors in the zebrafish system. Drug toxicity was monitored by scoring the AO reactivity of inhibitor-treated, but non-irradiated, p53^+/+ embryos (left column in FIG. 8A). Unless otherwise indicated, the inhibitors were applied at 18 hpf (that is, immediately before IR) for a total of 6 hours.
Live zebrafish embryos were dechorionated in pronase (2.0 mg/mL in egg water) for 3 to 5 min and rinsed five times in egg water at 18 hpf. Embryos were then γ-irradiated (12.5 Gy) using a ^137Cs-irradiator (Gammacell 1000) at 18 hr post-fertilization (hpf). At 24 hpf, embryos were incubated in […] Acridine Orange (AO; Sigma A-6014) in egg water for 30 min at 28.5° C., followed by 3 quick rinses and three 10-min washes in egg water. 5-10 AO-treated embryos were anesthetized in Tricaine ([…]; 3-amino benzoic acid ethylester from Sigma, A-5040) and mounted laterally on a glass slide in warm 0.5% agarose in egg water by streaking a thin layer of the warm agarose across the surface of the slide, and gently pulling the embryos across the agar with a transfer pipette. Lateral images of each zebrafish were acquired on a Zeiss Axioplan2 fluorescence microscope (5× lens), using OpenLab software and a Hammamatsu C4742-95 digital camera. All images were then converted to 8-bit grayscale in NIH ImageJ using the Image>Type>8-bit command. Next, we cropped the images using the Polyonal Selection tool and the Image>Crop functions to include only the trunk of the animal from the head until the beginning of the yolk tube (MO screen; FIG. 1B) or along the entire spinal cord (epistasis analyses; FIGS. 6A & 6D). The area outside of the selected region of interest was cleared using the Edit>Clear Outside command to create a distinct boundary around the area of interest (this is important as it allows the area of interest to be precisely selected after applying the threshold). Next, we split the acquired images into features of interest and background using the Image>Adjust>Threshold function in NIH ImageJ. We then set the maximum threshold of each image to 255 (the lower slide bar in the Threshold window), and adjusted the minimum threshold to the optimized threshold (see below). The threshold was applied using the Black & White display option, with the following Lut options applied; Thresholded pixels to foreground color; Remaining pixels to background color and Black foreground, white background. […] Next, we re-selected the region of interest on the thresholded image, following the bounded image carefully, and analyzed the pixels of the image using the Analyze>Analyze Particles function. The Minimum Size was set to 1px, the Maximum Size was set to the maximum value of 999999 and the Masks option was selected under the Show pull-down menu. The following extended options were also selected: Display Results; Clear Results; Summarize, Size Distribution and Record Starts. If selected by default, the Exclude on Edges option was deselected. The Area Fraction for each image selection was taken from the Summary window, which is the percentage of pixels in the selection that were black. To ensure valid comparisons of the AO labeling results across all experiments, we quantitatively determined a baseline Area Fraction across a large set of simultaneously irradiated and processed p53^+/+ embryos. […] This analysis yielded a mean value for the total labeled surface area of ˜20% (see FIG. 1B, light gray bar). We included at least 6 p53^+/+ non-injected control embryos in all subsequent AO-labeling experiments. […]

Another test relates to caspase-2. The test is described as follows: Western blot of caspase-2 cleavage in human cancer cells. It counts as cell-based. The method, then: (§1) Protein extract (5-60 μg) was added to 4× gel loading buffer and 10× denaturing solution (Invitrogen) in appropriate proportions, and samples were incubated at 70° C. for 10 min. Samples were run at 200V for 1 hr on a 4-12% Bis-tris gradient gel (Invitrogen). After electrophoresis, samples were transferred for 1.5 hr (350 mA) to a Nitrocellulose membrane (Millipore) using a submerged transfer apparatus (Bio-Rad). Membranes were then blocked with 5% milk in Tris-buffered saline with 0.1% tween (TBST) and probed overnight at 4° C. with the following antibodies: anti-zebrafish Chk1 (diluted 1:200), anti-zebrafish Chk2 (1:200), anti-P-Cdc2 (1:1000), anti-actin (1:2000), anti-human ATR (1:500) and Stressgen anti-human-caspase-3 (1:500) for zebrafish immunoblots; and anti-caspase-2 (1:200), Upstate anti-caspase-3 (1:500), anti-P-ATM (1:500), anti-ATM (1:500), Santa Cruz anti-human Chk1 (1:1000), Santa Cruz anti-human Chk2 (1:1000), anti-P-Chk1 (1:500), anti-P-Chk2 (1:500), anti-P-H2A.X (1:2000), anti-P-cdc25C (1:1000), anti-P-HSP27 (1:1000), anti-HSP27 (1:1000), anti-P-Cdc2 (1:1000), anti-p53 (1:1000) and anti-GAPDH (1:5000) for immunoblots of human tumor cell lysates. Detailed references for all primary antibodies can be found in the ‘Antibodies’ section elsewhere herein.

Another test deals with MK-2 (Homo sapiens, UniProt P49137). The test is described as follows: Western blot of MK-2 activity (Hsp-27 Ser82 phosphorylation) in irradiated HeLa cells. The arrangement: endogenous in cells; host or cells: HeLa. The class given is cell-based. The protocol: as §1
Chain of MK-2 (P49137 whole entry): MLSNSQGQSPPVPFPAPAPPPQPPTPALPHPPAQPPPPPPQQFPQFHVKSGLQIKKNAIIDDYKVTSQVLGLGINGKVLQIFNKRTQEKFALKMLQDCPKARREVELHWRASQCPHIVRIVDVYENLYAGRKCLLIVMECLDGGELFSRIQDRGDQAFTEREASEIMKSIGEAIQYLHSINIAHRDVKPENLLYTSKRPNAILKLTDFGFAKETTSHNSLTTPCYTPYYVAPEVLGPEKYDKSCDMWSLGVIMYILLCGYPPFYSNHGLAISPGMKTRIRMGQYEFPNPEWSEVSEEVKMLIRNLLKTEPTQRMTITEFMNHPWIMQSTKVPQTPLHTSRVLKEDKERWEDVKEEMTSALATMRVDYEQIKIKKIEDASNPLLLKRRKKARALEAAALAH

Take `Cn1c2ccccc2c2c3c(c4c5ccccc5n(CCC#N)c4c21)CNC3=O` [Gö6976]: the “Gö6976-treated p53 mutants showing a marked IR-response recovery” value with p53 mutant embryos (1 μM, 12.5 Gy IR at 18 hpf, n=210) is given as 95%. The “radiosensitization of p53 mutants (IR-induced AO labeling)” value with p53 mutant embryos (12.5 Gy at 18 hpf, Gö6976 1 μM, KU55933 10 μM, Chk2 Inhibitor II 10 μM, 6 hr) is recorded as “restored a complete response to IR; also recorded: restored IR-induced cell death with complete penetrance”. For the same compound, the “exposure immediately after IR sufficient to phenocopy chk1 MO knockdown” value with p53 mutant embryos (p53 mutant embryos) is 1.5 h. In the test on p53 mutant embryos (p53 mutants treated with Gö6976 for 6 hours, IR), the “AO staining response versus p53 mutant response” value is around 500 fold. Further, the caspase-2 activation result in the test with caspase-2 (HeLa, 2 Gy, Gö6976 500 nM for 24 hbIR) is recorded as “synergistic activation of caspase-2 was observed”; in the test on caspase-2 (HeLa, 3.2 Gy, Gö6976 1 μM applied 6 hbIR), “as efficiently as the standard 10 Gy protocol”. In addition, the caspase-2 cleavage result with caspase-2 (HeLa, 2 or 3.2 Gy, Gö6976 1 μM applied 1 hbIR) is reported as “no detectable cleavage”; in the test on caspase-2 (HeLa, 10 Gy, 24 hpIR, Gö6976 1 μM applied 1 hbIR) it was “readily apparent; also recorded: strong caspase-2 cleavage”; in the test on caspase-2 (TP53+/+ HCT116 cells, IR+Gö6976), “inability to cleave caspase-2”. Further, in the test with caspase-2 (TP53 null or mutant lines (TP53-/- HCT116, SAOS2, MDA-MB-435, LN-428), 10 Gy IR+Gö6976), the “caspase-2 cleavage versus single- or no-treatment controls” value is listed as “increases in caspase-2 cleavage”. For the same compound, the MK-2 activity entry at MK-2 (Gö6976 1 μM) is recorded as “an increase in MK-2 activity”. On MK-2 (Gö6976, increasing concentrations, 10 Gy, 24 hpIR), the “HSP-27 phosphorylation at serine 82 (MK-2 site)” value is “did not block HSP-27 phosphorylation at serine 82”.
